“And” between values parts separate entries of the source, which are not always exact repeats. Equal entries are not always repeated. Toxic doses and inconclusive results are not listed. Cut-off read from the data, not from the text of the source: active = T/C of 150% or more; inactive = T/C below 125%.
Tested on: L1210 leukemia ip in BDF1 mice, survival T/C
Test: NCI In Vivo Anticancer Drug Screen. Data for tumor model L1210 Leukemia (intraperitoneal) in B6D2F1 (BDF1) mice
Conditions: endpoint: mean survival time, higher = longer survival
Outline: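 Each compound was tested against a transplantable tumor grown in mice. The endpoint was survival, with treated animals benchmarked against vehicle controls as a simple ratio.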

[1] = dose: 100.0 mg/kg/injection, schedule: Q04DX003 (ip), vehicle: saline
[2] = dose: 200.0 mg/kg/injection, schedule: Q04DX003 (ip), vehicle: saline
[3] = dose: 100.0 mg/kg/injection, schedule: Q04DX003 (ip), vehicle: Klucel (hydroxypropylcellulose) (HPC)
[4] = dose: 200.0 mg/kg/injection, schedule: Q04DX003 (ip), vehicle: Klucel (hydroxypropylcellulose) (HPC)
[5] = dose: 400.0 mg/kg/injection, schedule: Q04DX003 (ip), vehicle: Klucel (hydroxypropylcellulose) (HPC)
[6] = dose: 100.0 mg/kg/injection, schedule: Q04DX003 (ip), vehicle: saline with Tween-80
[7] = dose: 200.0 mg/kg/injection, schedule: Q04DX003 (ip), vehicle: saline with Tween-80
[8] = dose: 400.0 mg/kg/injection, schedule: Q04DX003 (ip), vehicle: saline with Tween-80
[9] = dose: 50.0 mg/kg/injection, schedule: Q01DX009 (ip), vehicle: saline
[10] = dose: 100.0 mg/kg/injection, schedule: Q01DX009 (ip), vehicle: saline
[11] = dose: 200.0 mg/kg/injection, schedule: Q01DX009 (ip), vehicle: saline
[12] = dose: 100.0 mg/kg/injection, schedule: Q01DX001 (ip), vehicle: other

Measured: T/C

CN1/C(=C/C=N/NC(N)=S)C(C)(C)c2ccccc21
inactive: dose: 100.0 mg/kg/injection, schedule: Q01DX001 (ip), vehicle: carboxymethylcellulose (CMC) 102 % of control | dose: 200.0 mg/kg/injection, schedule: Q01DX001 (ip), vehicle: carboxymethylcellulose (CMC) 98 % of control | dose: 400.0 mg/kg/injection, schedule: Q01DX001 (ip), vehicle: carboxymethylcellulose (CMC) 98 % of control

CC(=O)OCc1cc2cc(O)ccc2nc1C
inactive: [1] 110 % of control | [2] 110 % of control | dose: 400.0 mg/kg/injection, schedule: Q04DX003 (ip), vehicle: saline 116 % of control

O=C(Nc1cc([N+](=O)[O-])ccc1F)Nc1ccccc1C(F)(F)F
inactive: [3] 96 % of control | [4] 94 % of control | [5] 91 % of control

O=C(/C=C/c1cccc([N+](=O)[O-])c1)Nc1cccnc1
inactive: dose: 100.0 mg/kg/injection, schedule: Q01DX009 (ip), vehicle: gum acacia 90 % of control | dose: 200.0 mg/kg/injection, schedule: Q01DX009 (ip), vehicle: gum acacia 96 % of control | dose: 400.0 mg/kg/injection, schedule: Q01DX009 (ip), vehicle: gum acacia 94 % of control

C/C(=C\c1ccccc1)c1ccccc1
inactive: dose: 50.0 mg/kg/injection, schedule: Q01DX001 (ip), vehicle: saline 91 % of control | dose: 100.0 mg/kg/injection, schedule: Q01DX001 (ip), vehicle: saline 97 % of control | dose: 200.0 mg/kg/injection, schedule: Q01DX001 (ip), vehicle: saline 95 % of control | dose: 400.0 mg/kg/injection, schedule: Q01DX001 (ip), vehicle: saline 101 % of control

CC1CCC(C(C)C)C(N(C)Cc2cc(Br)cc(Br)c2O)C1 (configuration not stated)
inactive: dose: 50.0 mg/kg/injection, schedule: Q01DX009 (ip), vehicle: Klucel (hydroxypropylcellulose) (HPC) 102 % of control | dose: 100.0 mg/kg/injection, schedule: Q01DX009 (ip), vehicle: Klucel (hydroxypropylcellulose) (HPC) 107 % of control | [6] 104 % of control | dose: 200.0 mg/kg/injection, schedule: Q01DX009 (ip), vehicle: Klucel (hydroxypropylcellulose) (HPC) 105 % of control | [7] 104 % of control | [8] 98 % of control

CC(=O)O[C@]1(C(C)=O)CC[C@H]2[C@@H]3CCC4=CC(=O)[C@H](C)C[C@]4(C)[C@@]3(F)[C@@H](O)C[C@@]21C
inactive: dose: 25.0 mg/kg/injection, schedule: Q01DX015 (sc), vehicle: steriod suspending solution 100 % of control | dose: 50.0 mg/kg/injection, schedule: Q01DX015 (sc), vehicle: steriod suspending solution 104 % of control | dose: 100.0 mg/kg/injection, schedule: Q01DX015 (sc), vehicle: steriod suspending solution 100 % of control | dose: 200.0 mg/kg/injection, schedule: Q01DX015 (sc), vehicle: steriod suspending solution 104 % of control and 115 % of control | dose: 400.0 mg/kg/injection, schedule: Q01DX015 (sc), vehicle: steriod suspending solution 109 % of control | dose: 800.0 mg/kg/injection, schedule: Q01DX015 (sc), vehicle: steriod suspending solution 110 % of control

CCCCCCCCCCCCNC1=C(Cl)C(=O)C(=O)c2cccnc21
inactive: [6] 98 % of control | [7] 101 % of control | [8] 95 % of control

O=[N+]([O-])c1cccc(-c2ccccc2)c1Br
inactive: dose: 100.0 mg/kg/injection, schedule: Q01DX009 (ip), vehicle: saline with Tween-80 94 % of control | [3] 93 % of control | dose: 200.0 mg/kg/injection, schedule: Q01DX009 (ip), vehicle: saline with Tween-80 93 % of control | [4] 96 % of control | dose: 400.0 mg/kg/injection, schedule: Q01DX009 (ip), vehicle: saline with Tween-80 94 % of control | [5] 94 % of control

CC(=O)Nc1ccc(C)cc1
inactive: dose: 100.0 mg/kg/injection, schedule: Q01DX001 (ip), vehicle: Klucel (hydroxypropylcellulose) (HPC) 94 % of control | dose: 200.0 mg/kg/injection, schedule: Q01DX001 (ip), vehicle: Klucel (hydroxypropylcellulose) (HPC) 102 % of control | dose: 400.0 mg/kg/injection, schedule: Q01DX001 (ip), vehicle: Klucel (hydroxypropylcellulose) (HPC) 91 % of control

CSc1ncnc2c1C[P+](Cc1ccccc1)(c1ccccc1)CC2 (configuration not stated)
inactive: dose: 100.0 mg/kg/injection, schedule: Q04DX002 (ip), vehicle: saline with Tween-80 103 % of control

C1OCOCO1
inactive: dose: 25.0 mg/kg/injection, schedule: Q01DX009 (ip), vehicle: saline 92 % of control | [9] 97 % of control | [10] 95 % of control | [11] 97 % of control

O=P(Oc1ccccc1)(N1CCCCC1)N1CCCCC1
inactive: dose: 25.0 mg/kg/injection, schedule: Q01DX001 (ip), vehicle: other 96 % of control | dose: 25.0 mg/kg/injection, schedule: Q01DX009 (ip), vehicle: carboxymethylcellulose (CMC) 97 % of control and 101 % of control | dose: 25.0 mg/kg/injection, schedule: Q04DX003 (ip), vehicle: other 97 % of control | dose: 50.0 mg/kg/injection, schedule: Q01DX001 (ip), vehicle: other 91 % of control | dose: 50.0 mg/kg/injection, schedule: Q04DX003 (ip), vehicle: other 108 % of control | [12] 106 % of control | dose: 100.0 mg/kg/injection, schedule: Q04DX002 (ip), vehicle: carboxymethylcellulose (CMC) 95 % of control and 100 % of control | dose: 100.0 mg/kg/injection, schedule: Q04DX003 (ip), vehicle: other 93 % of control | dose: 200.0 mg/kg/injection, schedule: Q04DX002 (ip), vehicle: carboxymethylcellulose (CMC) 104 % of control and 106 % of control | dose: 200.0 mg/kg/injection, schedule: Q04DX003 (ip), vehicle: carboxymethylcellulose (CMC) 92 % of control

c1ccc(Oc2ccccc2)cc1
inactive: [6] 105 % of control | [7] 101 % of control | [8] 97 % of control

C[N+]1(C)C2CC(=O)CC1C1CC12 (configuration not stated) (tested in a mixture with another compound)
inactive: [9] 106 % of control | [10] 108 % of control | [1] 94 % of control | [11] 90 % of control | [2] 100 % of control

CS(=O)(=O)c1ccc(Nn2c(N)nn(-c3ccc(S(C)(=O)=O)cc3)c2=N)cc1
inactive: [9] 93 % of control and 95 % of control and 96 % of control | [10] 95 % of control and 86 % of control | [11] 97 % of control and 107 % of control and 92 % of control

O=C(Cc1c[nH]c2ccccc12)N=Nc1c(O)[nH]c2ccccc12
inactive: [12] 102 % of control | dose: 200.0 mg/kg/injection, schedule: Q01DX001 (ip), vehicle: other 101 % of control | dose: 400.0 mg/kg/injection, schedule: Q01DX001 (ip), vehicle: other 93 % of control

CC1(C)N=C(N)N=C(N)N1c1ccc(OCC(=O)Nc2ccc(S(=O)(=O)F)cc2)cc1
inactive: dose: 0.8 mg/kg/injection, schedule: Q01DX009 (ip), vehicle: saline 101 % of control | dose: 4.0 mg/kg/injection, schedule: Q01DX009 (ip), vehicle: saline 103 % of control | dose: 20.0 mg/kg/injection, schedule: Q01DX009 (ip), vehicle: saline 112 % of control

CC1(C)CCCC2(C)C1CC(O)C1(CO1)C2CCC(C)(O)C1CO1 (configuration not stated)
inactive: dose: 25.0 mg/kg/injection, schedule: Q01DX009 (ip), vehicle: DMSO 92 % of control | dose: 25.0 mg/kg/injection, schedule: Q04DX003 (ip), vehicle: DMSO 88 % of control | dose: 50.0 mg/kg/injection, schedule: Q01DX009 (ip), vehicle: DMSO 96 % of control | dose: 50.0 mg/kg/injection, schedule: Q04DX003 (ip), vehicle: DMSO 93 % of control | dose: 100.0 mg/kg/injection, schedule: Q04DX003 (ip), vehicle: DMSO 97 % of control and 92 % of control
